Here are results for 14 molecules from PubChem BioAssay (NCI).

Molecules are shown by their SMILES.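 How tested: cells in 96-well plates exposed to compound for 48 hours at five concentrations. At the TGI there is no net growth.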

Test systems include ACHN renal; HCT-15 colon; HOP-62 NSCLC; HS 578T breast; LOX IMVI melanoma; M14 melanoma; MCF7 breast; MOLT-4 leukemia; NCI-H522 lung; OVCAR-8 ovarian; PC-3 prostate; SF-539 CNS; SR leukemia; SW-620 colon; T-47D breast.
Holding throughout (test): DTP human tumour cell line panel, 48 h

Regarding `COC1(OC)CCc2c(sc3ncnc(Nc4cccc(Br)c4)c23)C1`, the TGI in the assay on ACHN renal, in the assay on HCT-15 colon, in the assay on HOP-62 NSCLC, in the assay with HS 578T breast, with LOX IMVI melanoma and with M14 melanoma was over 100 µM in each case. Moreover, the TGI is over 100 µM with MCF7 breast; 41.5 µM with MOLT-4 leukemia; 30.3 µM in the assay on NCI-H522 lung; over 100 µM in the assay with OVCAR-8 ovarian; over 100 µM in the assay with PC-3 prostate; over 100 µM in the assay on SF-539 CNS. The TGI with SR leukemia is over 100 µM; in the assay on SW-620 colon, over 100 µM; with T-47D breast it was 65.6 µM.
On to `Cc1c(C)c(S(=O)(=O)N(CCCCN)OCCCN)c(C)c2c1OC(C)(C)CC2`, for which the TGI with ACHN renal was determined as 47.2 µM; with HCT-15 colon, 46.9 µM; in the assay on HOP-62 NSCLC, 32.6 µM; in the assay with HS 578T breast, 36.1 µM; in the assay with LOX IMVI melanoma, 40.4 µM; with M14 melanoma, 98.3 µM. Moreover, the TGI in the assay on MCF7 breast is over 100 µM; with MOLT-4 leukemia, 75.6 µM; with NCI-H522 lung, 34.1 µM; in the assay on OVCAR-8 ovarian, 42 µM; in the assay on PC-3 prostate it was 23.3 µM; with SF-539 CNS, 64.2 µM. For the same molecule, the concentration for total growth inhibition (TGI) with SR leukemia, with SW-620 colon and with T-47D breast was over 100 µM throughout.
Consider `COc1ccccc1C1c2cc3c(cc2OC2(OC)COC(=O)C12)OCO3` (stereo not given), for which the TGI in the assay with ACHN renal is over 100 µM; in the assay with HCT-15 colon, over 100 µM; in the assay on HOP-62 NSCLC, over 91.2 µM; with HS 578T breast, 34.8 µM; in the assay with LOX IMVI melanoma it was 67.1 µM; in the assay with M14 melanoma, 43.3 µM. Besides, the TGI in the assay on MCF7 breast is over 65.7 µM; with MOLT-4 leukemia it was over 46.2 µM; in the assay on NCI-H522 lung, over 27.3 µM; in the assay with OVCAR-8 ovarian, over 74.6 µM; in the assay with PC-3 prostate, over 92.7 µM; with SF-539 CNS, 33.4 µM. Moreover, the TGI in the assay on SR leukemia is over 28.8 µM; in the assay on SW-620 colon, over 100 µM; in the assay with T-47D breast it was over 100 µM.
As to `O=C(CCc1cc(O)cc(O)c1)NCCc1cc(O)cc(OCc2ccccc2)c1`, the TGI is 81.6 µM in the assay on ACHN renal; over 100 µM with HCT-15 colon; over 100 µM with HOP-62 NSCLC; over 100 µM in the assay on HS 578T breast; over 100 µM with LOX IMVI melanoma; over 100 µM with M14 melanoma. Further, the TGI with MCF7 breast is over 100 µM; in the assay on MOLT-4 leukemia it was 66.2 µM; with NCI-H522 lung, over 100 µM; with OVCAR-8 ovarian, over 100 µM; in the assay with PC-3 prostate, over 100 µM; with SF-539 CNS it was over 100 µM. The TGI in the assay with SR leukemia was 87.3 µM; with SW-620 colon, over 100 µM; with T-47D breast it was over 100 µM.
As for `COC(=O)[C@@H]1[C@@H]2NC(=S)N[C@@]1(C)Oc1ccccc12`, the TGI with ACHN renal, in the assay with HCT-15 colon, in the assay with HOP-62 NSCLC, with HS 578T breast, in the assay with LOX IMVI melanoma and in the assay with M14 melanoma was over 100 µM throughout. Further, the TGI in the assay on MCF7 breast, in the assay on MOLT-4 leukemia, in the assay with NCI-H522 lung, with OVCAR-8 ovarian, in the assay on PC-3 prostate and in the assay with SF-539 CNS was over 100 µM throughout. Also, the TGI with SR leukemia, in the assay on SW-620 colon and with T-47D breast was over 100 µM each time.
In the case of `O=C(Nn1c(-c2ccccc2)nc2ccccc2c1=O)c1ccc(Cl)cc1`, the TGI with ACHN renal, with HCT-15 colon, in the assay on HOP-62 NSCLC, in the assay with HS 578T breast, in the assay on LOX IMVI melanoma and in the assay on M14 melanoma was over 100 µM in each case. Also, the TGI in the assay with MCF7 breast, in the assay with MOLT-4 leukemia, in the assay with NCI-H522 lung, in the assay with OVCAR-8 ovarian, in the assay with PC-3 prostate and in the assay with SF-539 CNS was over 100 µM each time. The TGI in the assay on SR leukemia, with SW-620 colon and in the assay on T-47D breast was over 100 µM in each case.
Consider `C[C@@H](CC(=O)OCc1ccccc1)OC1OC(COC(=O)C(C)(C)C)C(OC(=O)C(C)(C)C)C(OC(=O)C(C)(C)C)C1OC(=O)C(C)(C)C` (stereo not given in full), for which the TGI in the assay with ACHN renal, in the assay with HCT-15 colon, with HOP-62 NSCLC, in the assay with HS 578T breast, with LOX IMVI melanoma and with M14 melanoma was over 100 µM each time. Besides, the concentration for total growth inhibition (TGI) in the assay with MCF7 breast, in the assay on MOLT-4 leukemia, in the assay on NCI-H522 lung, with OVCAR-8 ovarian, in the assay with PC-3 prostate and in the assay with SF-539 CNS was over 100 µM throughout. Further, the TGI with SR leukemia, in the assay on SW-620 colon and with T-47D breast was over 100 µM in each case.
On to `Cc1nc2sc3cccc(Cl)c3n2c(=O)c1N=Nc1ccc(Cl)cc1`, for which the TGI in the assay on ACHN renal, in the assay with HCT-15 colon, in the assay with HOP-62 NSCLC, with HS 578T breast, with LOX IMVI melanoma and in the assay on M14 melanoma was over 100 µM in each case. The TGI in the assay with MCF7 breast, in the assay with MOLT-4 leukemia, in the assay with NCI-H522 lung, in the assay with OVCAR-8 ovarian, with PC-3 prostate and in the assay with SF-539 CNS was over 100 µM each time. Besides, the TGI in the assay on SR leukemia, in the assay on SW-620 colon and in the assay with T-47D breast was over 100 µM throughout.
Consider `C=C1CC[C@@H](CCC2CCC3(OC2)O[C@]2(O)CC[C@@]3(C)OC2(C)C)C(C)(C)[C@H]1C/C=C1\CCOC1=O` (stereo not given in full), for which the TGI was over 100 µM with ACHN renal; over 81.4 µM in the assay on HCT-15 colon; over 100 µM with HOP-62 NSCLC; over 80.7 µM with HS 578T breast; 20 µM in the assay with LOX IMVI melanoma; over 100 µM in the assay with M14 melanoma. Also, the TGI in the assay with MCF7 breast was 28.9 µM; with MOLT-4 leukemia, 23.9 µM; in the assay on NCI-H522 lung it was over 58.9 µM; in the assay on OVCAR-8 ovarian it was over 100 µM; in the assay on PC-3 prostate it was 93.9 µM; in the assay on SF-539 CNS it was over 32.4 µM. The TGI is over 52.2 µM in the assay on SR leukemia, over 100 µM in the assay on SW-620 colon and 90.3 µM with T-47D breast.
Regarding `COC(=O)/C=C(\C(=O)OC)c1cc(C)c2cc(C(C)C)ccc(C)c1-2`, the TGI in the assay with ACHN renal was over 100 µM; with HCT-15 colon, 27.5 µM; with HOP-62 NSCLC, over 100 µM; with HS 578T breast, over 100 µM; in the assay on LOX IMVI melanoma, over 100 µM; in the assay with M14 melanoma, over 100 µM. Also, the TGI with MCF7 breast is 72.8 µM; with MOLT-4 leukemia it was over 100 µM; with NCI-H522 lung, 50.3 µM; in the assay on OVCAR-8 ovarian, over 100 µM; in the assay with PC-3 prostate, over 100 µM; with SF-539 CNS, over 100 µM. The total growth inhibition concentration (TGI) in the assay on SR leukemia, with SW-620 colon and in the assay on T-47D breast was over 100 µM in each case.
Regarding `CC(N)(CC(O)(C(F)(F)Cl)C(F)(F)Cl)C(=O)O` (stereo not given), the TGI in the assay with ACHN renal, with HCT-15 colon, with HOP-62 NSCLC, with HS 578T breast, with LOX IMVI melanoma and in the assay on M14 melanoma was over 10 µM in each case. In addition, the TGI with MCF7 breast, in the assay on MOLT-4 leukemia, in the assay on NCI-H522 lung, in the assay with OVCAR-8 ovarian, with PC-3 prostate and in the assay with SF-539 CNS was over 10 µM throughout. Besides, the TGI in the assay on SR leukemia, in the assay on SW-620 colon and in the assay with T-47D breast was over 10 µM each time.
In the case of `CN=c1sc2c(n1C)C(=O)c1ccccc1C2=O`, the TGI with ACHN renal stood at 19.2 µM; with HCT-15 colon, 4.82 µM; with HOP-62 NSCLC, 3.39 µM; with HS 578T breast it was 6.16 µM; with LOX IMVI melanoma it was 10.4 µM; in the assay on M14 melanoma it was 3.01 µM. The TGI in the assay on MCF7 breast is 3.8 µM; in the assay with MOLT-4 leukemia, 26.5 µM; in the assay on NCI-H522 lung it was 29.4 µM; in the assay on OVCAR-8 ovarian it was 15.3 µM; in the assay with PC-3 prostate it was over 55.1 µM; in the assay on SF-539 CNS, 4.2 µM. Besides, the TGI in the assay with SR leukemia worked out at 8.97 µM; with SW-620 colon it was 4.81 µM; in the assay on T-47D breast, 17.5 µM.
Take `CCOC(=O)c1c2c(n(-c3ccc(C)cc3)c1C)-c1ccccc1C(=O)C2(C(=O)OCC)C(=O)OCC`: the TGI in the assay on ACHN renal was over 100 µM; in the assay on HCT-15 colon it was over 100 µM; in the assay with HOP-62 NSCLC, over 100 µM; in the assay with HS 578T breast it was 86.5 µM; in the assay with LOX IMVI melanoma it was over 84.5 µM; in the assay with M14 melanoma, over 100 µM. Moreover, the TGI in the assay on MCF7 breast was 76.6 µM; in the assay on MOLT-4 leukemia it was over 4.64 µM; in the assay on NCI-H522 lung it was 79.9 µM; in the assay with OVCAR-8 ovarian, 98.4 µM; with PC-3 prostate it was over 100 µM; in the assay with SF-539 CNS it was over 71.9 µM. The TGI in the assay on SR leukemia was over 4.64 µM; in the assay with SW-620 colon, over 100 µM; in the assay on T-47D breast, 64.5 µM.
Consider `COC(=O)/C=C/c1ccc(OP(=O)(O)O)c(OC)c1`, for which the TGI with ACHN renal, with HCT-15 colon, with HOP-62 NSCLC, with HS 578T breast, in the assay on LOX IMVI melanoma and with M14 melanoma was over 100 µM each time. The TGI with MCF7 breast, in the assay on MOLT-4 leukemia, with NCI-H522 lung, in the assay on OVCAR-8 ovarian, in the assay on PC-3 prostate and in the assay with SF-539 CNS was over 100 µM throughout. Further, the TGI in the assay with SR leukemia, in the assay on SW-620 colon and with T-47D breast was over 100 µM each time.

For orientation: TGI means the concentration giving total growth inhibition. Low values mean more potent growth arrest, high ones less potent growth arrest.
